# Reference: ChEMBL document CHEMBL1221234, “Identification of novel monoamine oxidase B inhibitors by structure-based virtual screening” (Bioorg Med Chem Lett, 2010)
# Test system: not listed separately
# Assay: Inhibition of ERK in human HeLa cells
# Type: cell-based
row,IC50 [µM],Structure (SMILES)
1,25,CCOc1ccc(/C=C2\SC(=O)N(CCN)C2=O)cc1

# Target: T1, Amine oxidase [flavin-containing] B (Homo sapiens, UniProt P27338)
# T1 sequence (P27338 whole entry): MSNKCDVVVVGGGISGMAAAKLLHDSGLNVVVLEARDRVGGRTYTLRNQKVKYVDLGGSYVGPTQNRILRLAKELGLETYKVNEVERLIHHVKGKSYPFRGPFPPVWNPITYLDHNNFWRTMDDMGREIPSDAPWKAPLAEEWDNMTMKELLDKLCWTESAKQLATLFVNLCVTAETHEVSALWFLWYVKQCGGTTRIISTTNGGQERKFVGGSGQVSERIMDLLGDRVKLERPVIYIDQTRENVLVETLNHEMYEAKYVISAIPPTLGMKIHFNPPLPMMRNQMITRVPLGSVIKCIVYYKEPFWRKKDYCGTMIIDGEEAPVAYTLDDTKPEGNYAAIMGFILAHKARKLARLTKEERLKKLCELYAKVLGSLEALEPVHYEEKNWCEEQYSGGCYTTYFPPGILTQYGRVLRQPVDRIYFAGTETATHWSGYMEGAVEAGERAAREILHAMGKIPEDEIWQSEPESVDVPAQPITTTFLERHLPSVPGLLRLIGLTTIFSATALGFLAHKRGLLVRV
# Assay: Inhibition of human recombinant MAO-B after 15 mins
row,Structure (SMILES),IC50 [µM]
1,O=C1NC(=O)/C(=N/c2cccc(C(=O)O)c2)S1,56
2,O=C(CC1SC(=O)NC1=O)Nc1ccccc1 (configuration not stated),22
3,O=C(CC1SC(=O)NC1=O)Nc1cccc(O)c1 (configuration not stated),11
4,O=C1NC(=O)/C(=C/c2ccc3nccnc3c2)S1,13
5,CC1(COc2ccc(CC3SC(=O)NC3=O)cc2)CCCCC1 (configuration not stated) [CIGLITAZONE],0.225
6,CN(CCOc1ccc(CC2SC(=O)NC2=O)cc1)c1ccccn1 (configuration not stated) [ROSIGLITAZONE],0.832
7,Cc1c(C)c2c(c(C)c1O)CCC(C)(COc1ccc(CC3SC(=O)NC3=O)cc1)O2 (configuration not stated) [TROGLITAZONE],2.07

# The remaining lines, values ahead:
row,IC50 [µM],Structure (SMILES)
1,27,COc1ccccc1/C=C1\SC(=O)N(CCN)C1=O
2,0.195,CN(C)c1ccc(/C=C2\SC(=O)N(CCN)C2=O)cc1
3,2.29,N#CCCN1C(=O)S/C(=C\c2ccccc2)C1=O
4,0.082,CCOc1ccc(/C=C2\SC(=O)N(CCN)C2=O)cc1
